In patent US12479905B2, “Peptide used for immunotherapeutics” (3H BIO. CO., LTD., priority 2020, dated 2025):
Non-standard residues stand in square brackets, D forms with d. No end group written: not given here. Cha = N[C@@H](CC1CCCCC1)C(=O)O; Ahx = NCCCCCC(=O)O

Assays:
[1] = system: RNVPPIFNDVYWIAF (SEQ ID NO: 6); assay: Confirmation of antibody titer in serum by ELISA using the target antigen (Experimental Example 7); assay type: in vivo, C57BL/6J, male mice; conditions: serum at 11, 16 and 19 weeks of age; ELISA antigen SEQ ID NO: 6 only; administration at 8, 10, 12 and 14 weeks
Excerpt: In order to determine whether the composition for in vivo administration administered in Experimental Example 1.7 induced an antibody against the B-cell epitope, a method for confirming the antibody titer using the target antigen is as follows. In particular, the target antigen is RNVPPIFNDVYWIAF (SEQ ID NO: 6) or ApoB100. The time to confirm the antibody titer may vary as needed, and the time was specifically described for each experimental example.
1-1) For each injection of a composition for in vivo administration into a test subject, collect about 200 μL of blood from the subject's tail vein one week after the injection.
1-2) After placing the collected blood at 4° C. for one hour, perform centrifugation of the blood sample at 14,000 rpm for 10 minutes to separate the serum, which is the supernatant.
1-3) Dilute the target antigen to a concentration of 50 μg/100 μL in coating buffer (0.05 M, bicarbonate, pH 9.6) and add the antigen to a 96-well plate in an amount of 50 μg per well, and allow them to react overnight at 4° C. so that the peptide is coated on the wall of the well.
1-4) Wash the target antigen-coated plate three times using 300 μL of phosphate buffered saline (PBS)-T (0.05% with Tween-20) per well.
2-1) Add 300 μL of a 0.5% casein blocking solution per well in the plate, and allow to react overnight at 4° C.
2-2) Wash the plate three times with 300 μL of PBS-T per well.
3-1) As the primary antibody reaction, dilute the separated serum to an appropriate concentration, add it in an amount of 100 μL per well, and allow to react at 37° C. for one hour. In particular, after the initial injection, subject the serum to serial dilution by diluting the same to 1/20 to 1/1,000 in the experiment, and 1/500 to 1/10,000 depending on the subject during the experiment after the second to third injections. As a positive control, use a monoclonal antibody against the peptide of SEQ ID NO: 41 after purification.
3-2) After the reaction of 3-1, wash the plate three times with 300 μL of PBS-T per well.
4-1) As a secondary antibody reaction, add 100 μL of horseradish peroxidase (HRP) conjugated to anti-mouse IgG antibody recognizing a mouse antibody per well, and allow them to react at 37° C. for one hour.
4-2) After the reaction of 4-1), wash the plate three times with 300 μL of PBS-T per well.
5-1) Add 100 μL of a o-phenylenediamine dihydrochloride (OPD) solution per well, and allow to react at 37° C. for 10 minutes, and measure the absorbance at OD 450 nm (Synergy HT microplate reader, BioTek).
Obtain the antibody titer in serum by converting the extinction coefficient, which is measured based on 1 mg/mL concentration of the monoclonal antibody against the target antibody as a positive control.
(2) According to Experimental Example 1.9, the antibody titers observed in a test subject for each experimental group at 11 weeks, 16 weeks, and 19 weeks were confirmed. In particular, the target antigen was determined using RNVPPIFNDVYWIAF (SEQ ID NO: 6).

[2] = Weight measurement of high-fat-diet mice after in vivo administration of peptide composition (Experimental Example 7); conditions: C57BL/6J male, high-fat diet after 10 weeks; intramuscular administration at 8, 10, 12 and 14 weeks of age; 50 μg peptide/100 μL with PHAD and Alhydrogel
Excerpt: In order to test the effect of the composition for in vivo administration prepared in Experimental Example 1.5, C57BL/6, Balbc and/or ICR species were used as experimental mice (purchased from Central Lab Animal Inc.). Although there were some differences in species, the mice purchased were 7-week-old on average and they were acclimatized for one week, and were used for experiments when they were 8 weeks of age. Experimental mice were reared under the conditions of a constant temperature and humidity environment within the temperature range of 23±1° C., relative humidity of 50±5%, and an environment controlled as 12-hour light room/12 hour dark room. Drinking water and food were provided ad libitum. In the case of a normal diet (purchased from Central Lab Animal Inc.), it consisted of 20% protein, 70% carbohydrate, and 10% fat based on total calories, whereas in the case of an obesity-inducing diet (purchased from Research diets), it consisted of a high-fat diet including 20% protein, 20% carbohydrate, and 60% fat based on total calories. Experimental mice were divided into each group to have different dietary conditions and composition administration conditions, and experiments were performed with the number of individuals that could be statistically processed for each experimental group. Detailed conditions are as disclosed in each specific experimental example.
For a test subject prepared in Experimental Example 1.6, different compositions were administered for each experimental group. All administration compositions were administered by an intramuscular injection method, and after disinfecting muscles of both thighs of each mouse with an alcohol swab, 50 μL each with a total amount of 100 μL was injected.
From the time of arrival to the end of the experiment for each experimental group of mice, the average was calculated after measuring three times per week to obtain the average weight value for each week. After completion of the experiment, each mouse was anesthetized, organs were dissected, and weights were measured, and the average was obtained for each experimental group.
According to Experimental Example 1.7, the composition for in vivo administration was administered to the test subject. In particular, the administration cycle was as follows: 8 weeks, 10 weeks, 12 weeks, and 14 weeks of age.
(1) According to Experimental Example 1.8, the weight of a test subject for each experimental group was measured.

Substance	antibody titer to RNVPPIFNDVYWIAF (SEQ ID NO: 6) [1]	weight loss effect compared to the control group (Obese) [2]
RNVPPIFNDVYWIAFZaK(Cha)VAAWTLKAAaZGSHHHHHHGSDDDDK (RNVPPIFNDVYWIAF[Ahx][dA]K[Cha]VAAWTLKAA[dA][Ahx]GSHHHHHHGSDDDDK) [P2]	observed	weight loss effect appeared
RNVPPIFNDVYWIAFZaK(Cha)VAAWTLKAAaZCRFRGLISLSQVYLS (RNVPPIFNDVYWIAF[Ahx][dA]K[Cha]VAAWTLKAA[dA][Ahx]CRFRGLISLSQVYLS) [P1]	there were individuals showing a large antibody titer depending on the individual, and there were also individuals which showed no antibody titer	weight loss effect
RNVPPIFNDVYWIAFZaK(Cha)VAAWTLKAAaZ (RNVPPIFNDVYWIAF[Ahx][dA]K[Cha]VAAWTLKAA[dA][Ahx]) [P7]	observed	weight loss effect appeared
RNVPPIFNDVYWIAFCRFRGLISLSQVYLSZaK(Cha)VAAWTLKAAaZ (RNVPPIFNDVYWIAFCRFRGLISLSQVYLS[Ahx][dA]K[Cha]VAAWTLKAA[dA][Ahx]) [P5]	–	a weight loss effect is observed
RNVPPIFNDVYWIAFK(Cha)VAAWTLKAA (RNVPPIFNDVYWIAFK[Cha]VAAWTLKAA) [P8]	shown	weight loss effect was shown
KTTKQSFDLSVKAQYKKNKHZaK(Cha)VAAWTLKAAaZCRFRGLISLSQVYLS (KTTKQSFDLSVKAQYKKNKH[Ahx][dA]K[Cha]VAAWTLKAA[dA][Ahx]CRFRGLISLSQVYLS) [P4]	–	there was a weight loss effect
GSHHHHHHGSDDDDKZaK(Cha)VAAWTLKAAaZRNVPPIFNDVYWIAF (GSHHHHHHGSDDDDK[Ahx][dA]K[Cha]VAAWTLKAA[dA][Ahx]RNVPPIFNDVYWIAF) [P3]	observed	weight loss effect appeared
RNVPPIFNDVYWIAFK(Cha)VAAWTLKAAHHHHHH (RNVPPIFNDVYWIAFK[Cha]VAAWTLKAAHHHHHH) [P9]	observed	weight loss effect appeared
